Assay results taken from US20240424071A1, “NOVEL MUTANT OF RECOMBINANT GANODERMA LUCIDUM IMMUNOMODULATORY PROTEIN AND USE THEREOF” (CHANGCHUN INTELLICROWN PHARMACEUTICAL CO., LTD., priority 2021, published 2024).

Legend:
[1] = system: LI6669 human liver cancer orthotopic transplantation tumor; assay: LI6669 human liver cancer orthotopic transplantation tumor model (PDX), survival; assay type: in vivo, BALB/c nude mouse; conditions: Group 2, 50 mg/kg QD p.o. for 28 days; solvent control […] days
From the text: LI6669 is a HuPrime® orthotopic transplantation model originated from a patient's liver cancer.
Tumor tissue was collected from a LI6669 tumor-bearing mouse, a HuPrime® orthotopic transplantation model of liver, and cut to tumor pieces with a diameter of 2-3 mm, which were inoculated into the upper left lobe of liver of a Balb/c nude mouse.
When the average tumor volume of the tumor-bearing mice reached about 50-150 mm^3, the mice were randomly grouped by weight according to Table 3 of “3. Design of Experiment”. The grouping day was set as Day 0, and the administration began on Day 1. […].
After tumor cell inoculation, route monitoring comprises the tumor growth and the effect of treatment on normal behaviors of animals, specially including the activity, food intake and water consumption, weight gain or loss, eyes, fur of experimental animals, and other abnormal conditions. The clinical symptoms observed during the experiments were all recorded in the original data. After drug administration, the mice were measured twice a week for their weights. Observation was made to record the mouse requiring euthanasia and the corresponding survival time.

[2] = system: human non-small cell lung cancer cell line A549; assay: Killing effect on tumor cells, CellTiter-Fluor Cell Viability Assay; assay type: cell-based; conditions: 48 h, 2% fetal bovine serum medium
Description: CellTiter™-Flour Cell Viability Assay Reagent kit was used to detect the killing effects of the EAEA+rLZ-8 mutant (SEQ ID NO: 14) and the […]+rLZ-8 mutant (SEQ ID NO: 15) on tumor cells (human non-small cell lung cancer cell line A549) in vitro. The recombinant protein was diluted with 2% fetal bovine serum culture medium to produce test solutions with concentrations of 100 μg/mL, 50 μg/mL, 25 μg/mL, 12.5 μg/mL, 6.25 μg/mL, 3.125 μg/mL, 1.5625 μg/mL, 0.78125 μg/mL, 0.390625 μg/mL, 0.1953125 μg/mL, and 0.09765625 μg/mL, total 11 concentrations.
The dilutions were added into a 96-well plate containing A549 cells with 100 μL/well. For each group of concentration, 3 parallel wells were set and marked. A cell control group (i.e., cells only) was set at 100 μL/well, with 6 parallel wells. The plates were cultured in a CO2 incubator at 5% CO2 and 37° C. for 48 h.
100 μL of prepared CellTiter™-Flour Cell Viability Assay Reagent (1 mLL Assay Buffer; 1 μl GF-AFC Substrate) was added into each well. The plates were shaken for mixing well, and incubated in a CO2 incubator at 5% CO2 and 37° C. for not less than 30 min. The fluorescence value was detected with a microplate reader at a wavelength of 400EX/505EM, and the IC50value was calculated.

Molecule: CNC(=O)c1cc(Oc2ccc(NC(=O)Nc3ccc(Cl)c(C(F)(F)F)c3)cc2)ccn1 [Sorafenib, reference compound]
- Median Survival [1]: >28 days

B1: EEAEAEAEPK+rLZ-8 mutant: recombinant protein: spacer peptide EEAEAEAEPK (SEQ ID NO: 9) linked to rLZ-8 mutant (SEQ ID NO: 13) (protein)
chain: EEAEAEAEPKMSDTALIFRLAWDVKKLSFDYTPNWGRGNPNNFIDTVTFPKVLTDKAYTYRVAVSGRNLGVKPSYAVESKGSQKVNFLEYNSGYGIADTNTIQVFVVDPDTNNDFIIAQWN
modifications: EEAEAEAEPK-rLZ-8 mutant (D70K)
- IC50, killing effect on lung cancer cell line A549 [2]: 1.91 µg/mL
